In patent publication US20220362230A1, “USE OF GLUTARIMIDE DERIVATIVE FOR OVERCOMING STEROID RESISTANCE AND TREATING DISEASES ASSOCIATED WITH ABERRANT INTERFERON GAMMA SIGNALING” ("CHEMIMMUNE THERAPEUTICS" LIMITED LIABILITY COMPANY, priority 2018, published 2022):

How the values were obtained:
[1] = tested on: interferon-γ-dependent cytokine CXCL10 (interferon-gamma-induced protein IP10); test: Phase II clinical trial, CXCL10 concentration in blood plasma; assay type: in vivo, human; conditions: with baseline steroid therapy; patients with IFN-γ baseline level >100 pg/ml
Procedure: (§1) During the study therapy phase, patients received Compound 1 or placebo for 12 weeks against the background of baseline steroid therapy with low doses of inhaled corticosteroids. Compound 1 or placebo was administered orally once a day, 30 minutes before breakfast.
(§2) To study the effect of the IFN-γ baseline level in patients with asthma, the results obtained in the clinical study were additionally analyzed; the patients' response to therapy was studied depending on their IFN-γ baseline level in the blood at the time of trial inclusion (determined by the Bio-Plex Pro Human Chemokine Panel Assay (Bio-Rad)).
(§3) Moreover, in the clinical trial, Compound 1 was also analyzed for its effect on IFN-γ signal transduction. […] Thus, the suppression of steroid resistance induced by the use of Compound 1 could potentially be associated with an effect on the aberrant activity (signaling) of IFN-γ.

[2] = tested on: acute oxazolone-induced ulcerative colitis; test: Murine model of acute oxazolone-induced ulcerative colitis; assay type: in vivo, female balb/c mice; conditions: for The degree of large intestine wall damage, score: 72 hours after oxazolone, M ± m, n=10
Procedure: The activity of Compound 1 in a model of acute oxazolone-induced ulcerative colitis was studied using the standard method [Immunity. 2002. P. 629-638]. In the study, female balb/c mice (6-8 weeks old) were used. Compound I was administered intragastrically, three times: 1 hour, 25 hours, and 49 hours after rectal administration of oxazolone. The body weight of the animals was measured before and 24, 48 and 72 hours after administration of oxazolone. The intestinal wall damage was evaluated under a microscope 72 hours after administration of oxazolone, according to the following score scale: 0=no damage, 1=hyperemia, no ulcers, 2=hyperemia, thickening of the intestinal wall, no ulcers, 3=one ulcer without thickening of the intestinal wall, 4=2 or more sites of ulceration or inflammation, 5=2 or more serious sites of ulceration and inflammation, or one site of ulceration/inflammation, extending >1 cm along the length of the colon, and 6-10=damage covers>2 cm long the length of the colon, the score is increased by 1 for each additional 1 cm of involvement. All data were analyzed by descriptive statistics: arithmetic mean (M) and standard error of the arithmetic mean (m). The Shapiro-Wilk test was used to check the normality of the distribution of the obtained experimental data. A normal distribution was analyzed with 1-way ANOVA (with Dunnett's post-analysis) to assess intergroup differences. A non-normal distribution was analyzed with […] (with Tukey's post-analysis) to compare several groups. Differences were determined at a confidence level of 5%.

IFN-γ = test: Phase II clinical trial, interferon-γ concentration in blood plasma; assay type: in vivo, human; conditions: with baseline therapy, compared with baseline therapy and placebo; regardless of IFN-γ level at inclusion
Procedure: as §1, §2, §3

[3] = tested on: patients with bronchial asthma; test: Phase II clinical trial (PULM-XC8-02, NCT03450434), response to baseline inhaled corticosteroid therapy (FEV1); assay type: in vivo, human
Procedure: Thus, Compound is potentially useful for the therapy of diseases associated with the development of steroid resistance, in particular for the treatment of steroid-resistant asthma.
In the clinical trial, eligible patients were randomized 1:1:1:1 to one of four groups: • Compound 1 at a dose of 2 mg per day; • Compound 1 at a dose of 10 mg per day; • Compound 1 at a dose of 100 mg per day; and • Placebo.
as §1
Thus, one of the effects of the use of Compound 1 is the overcoming of the resistance to corticosteroids, which is the backbone of the baseline therapy of patients enrolled in the clinical trial.
as §2
The patients' response to baseline therapy in the groups of baseline steroid therapy and placebo decreased with an increase in the IFN-γ baseline level (FIG. 2). […] This fact indicates the overcoming of steroid resistance that can be caused, inter alia, by aberrant IFN-γ signaling.

[4] = tested on: cough induced by inhalation of citric acid and IFN-γ; test: Guinea pig model of cough induced by inhalation of citric acid and IFN-γ; assay type: in vivo, guinea pigs of the Aguti line; conditions: for The number of coughing movements within 8 minutes: 7 hours before citric acid inhalation, M ± m, n=5
Procedure: The activity of Compound I in a model of cough in guinea pigs, which was induced by inhalation of citric acid and IFN-γ, was studied in accordance with the method [Am J Respir Crit Care Med. 2018. V. 198(7). P. 868-879].
In the study, guinea pigs of the Aguti line were used. All experimental animals were inhaled with a citric acid solution (0.3 M) prepared in physiological saline, for 8 minutes. The pathology control group and the groups receiving therapy were inhaled with IFN-γ (10 pg/kg) for 3 minutes at 7 hours before the inhalation of citrate. Compound 1 was administered intragastrically once, immediately after inhalation of IFN-γ, i.e. 7 hours before inhalation of the citric acid solution. The antitussive activity was evaluated by counting the number of coughing fits within 8 minutes from the start of inhalation of citric acid. All data were analyzed by descriptive statistics: arithmetic mean (M) and standard error of the arithmetic mean (m). The Shapiro-Wilk test was used to check the normality of the distribution of the obtained experimental data. A normal distribution was analyzed with 1-way ANOVA (with Dunnett's post-analysis) to assess intergroup differences. A non-normal distribution was analyzed with […] (with Tukey's post-analysis) to compare several groups. Differences were determined at a confidence level of 5%.

How did the “Change in concentration of CXCL10 (IP10) in blood plasma, week 12 vs week 0” value [1] turn out when O=C1CCCC(=O)N1CCc1cnc[nH]1 [Compound 1, 1-(2-(1H-imidazol-4-yl)ethyl)piperidine-2,6-dione] was run?
The value was “suppressed the concentration of interferon-γ-dependent cytokine CXCL10”.

And the “The degree of large intestine wall damage, score” value (“The degree” below) ([2]; 0.3 mg/kg intragastrically x3)?
Its value is 1.70 ± 0.30 score.

What about the Body weight ([2]; 0.3 mg/kg, 24 hours after administration of oxazolone) of the same compound?
Its Body weight is 17.9 ± 0.2 g.

And the Body weight ([2]; 0.3 mg/kg, 48 hours after administration of oxazolone)?
The Body weight was 17.5 ± 0.3 g.

And the Body weight ([2]; 0.3 mg/kg, 72 hours after administration of oxazolone)?
The Body weight was 16.9 ± 0.2 g.

What about the Body weight ([2]; 0.3 mg/kg, before administration of oxazolone) of the same compound?
Its Body weight is 19.0 ± 0.6 g.

What about the “The degree” value ([2]; 3 mg/kg intragastrically x3) of the same compound?
The value was 1.89 ± 0.31 score.

What about the Body weight ([2]; 3 mg/kg, 24 hours after administration of oxazolone) of the same compound?
The Body weight was 17.9 ± 0.3 g.

And the Body weight ([2]; 3 mg/kg, 48 hours after administration of oxazolone)?
Its Body weight is 17.6 ± 0.2 g.

And the Body weight ([2]; 3 mg/kg, 72 hours after administration of oxazolone)?
The Body weight was 16.7 ± 0.2 g.

What about the Body weight ([2]; 3 mg/kg, before administration of oxazolone) of the same compound?
The Body weight was 18.7 ± 0.4 g.

And the “The degree” value ([2]; 30 mg/kg intragastrically x3)?
Its value is 1.40 ± 0.16& score.

And the Body weight ([2]; 30 mg/kg, 24 hours after administration of oxazolone)?
The Body weight was 18.8 ± 0.2& g.

What about the Body weight ([2]; 30 mg/kg, 48 hours after administration of oxazolone) of the same compound?
Its Body weight is 18.4 ± 0.4& g.

And the Body weight ([2]; 30 mg/kg, 72 hours after administration of oxazolone)?
Its Body weight is 18.4 ± 0.5& g.

And the Body weight ([2]; 30 mg/kg, before administration of oxazolone)?
Its Body weight is 19.8 ± 0.6 g.

What about the “Effect on degree of damage of the colon wall” value ([2]; administered intragastrically) of the same compound?
The value was “reduced the degree of damage of the colon wall”.

What about the “Effect on weight loss in animals” value ([2]; administered intragastrically) of the same compound?
Its value is “prevented weight loss”.

What about the “Intensity of action compared with reference steroid” value ([2]; murine model of ulcerative colitis) of the same compound?
Its value is “not inferior to prednisolone by intensity of action”.

And the “Change in concentration of IFN-γ in blood plasma, week 12 vs week 0” value (IFN-γ)?
The value was “negative dynamics of IFN-γ concentrations”.

And the “Response to therapy (change in FEV1, week 12 vs. week 0)” value ([3]; 100 mg per day with baseline steroid therapy vs placebo, especially patients with IFN-γ level more than 100 pg/ml)?
The value was “significantly greater and clinically significant response to therapy”.

What about the Clinical effect ([3]; 100 mg per day, 12 weeks, with baseline low-dose inhaled corticosteroids) of the same compound?
The Clinical effect was “clinically significant effect”.

And the “Number of patients with an increase in FEV1 by 100 ml or more (response to baseline steroid therapy)” value ([3]; baseline steroid therapy and Compound 1, 12 weeks, oral once a day, placebo group 13 out of 29)?
Its value is 20 patients out of 29.

What about the “The number of coughing movements within 8 minutes” value ([4]; 1.4 mg/kg intragastrically once) of the same compound?
The value was 19.2 ± 2.7&.

And the “The number of coughing movements within 8 minutes” value ([4]; 14 mg/kg intragastrically once)?
Its value is 18.4 ± 2.9&.

What about the “Effect on number of coughing movements” value ([4]; administered intragastrically) of the same compound?
Its value is “reduced the number of coughing movements”.

Which Body weight ([2]; 10 mg/kg, 24 hours after administration of oxazolone) does the source give for C[C@]12C=CC(=O)C=C1CC[C@@H]1[C@@H]2C(=O)C[C@@]2(C)[C@H]1CC[C@]2(O)C(=O)CO [Prednisone, reference compound] here?
Its Body weight is 18.5 ± 0.4 g.

What about the Body weight ([2]; 10 mg/kg, 48 hours after administration of oxazolone) of the same compound?
Its Body weight is 17.9 ± 0.4 g.

What about the Body weight ([2]; 10 mg/kg, 72 hours after administration of oxazolone) of the same compound?
Its Body weight is 17.3 ± 0.6 g.

And the “The degree” value ([2]; 10 mg/kg)?
The value was 1.80 ± 0.25 score.

What about the Body weight ([2]; 10 mg/kg, before administration of oxazolone) of the same compound?
Its Body weight is 19.0 ± 0.4 g.
